Test results: PubChem BioAssay (NCI)
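Test compounds were applied to cells in 96-well plates for 48 hours at 5 doses. Definition used: TGI = concentration required for complete inhibition of growth.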

Assays:
Assay in all cases: NCI anticancer screen, dose series, 48 h
786-0 renal = tested on: 786-0 renal
A549 NSCLC = tested on: A549 NSCLC
ACHN renal = tested on: ACHN renal
BT-549 breast = tested on: BT-549 breast
CAKI-1 renal = tested on: CAKI-1 renal
CCRF-CEM leukemia = tested on: CCRF-CEM leukemia
COLO 205 colon = tested on: COLO 205 colon
DU-145 prostate = tested on: DU-145 prostate
EKVX NSCLC = tested on: EKVX NSCLC
HCC-2998 colon = tested on: HCC-2998 colon
HCT-116 colon = tested on: HCT-116 colon
HCT-15 colon = tested on: HCT-15 colon
HL-60(TB) leukemia = tested on: HL-60(TB) leukemia
HOP-62 NSCLC = tested on: HOP-62 NSCLC
HOP-92 NSCLC = tested on: HOP-92 NSCLC
HS 578T breast = tested on: HS 578T breast
HT29 colon = tested on: HT29 colon
IGROV1 ovarian = tested on: IGROV1 ovarian
K-562 leukemia = tested on: K-562 leukemia
KM12 colon = tested on: KM12 colon
LOX IMVI melanoma = tested on: LOX IMVI melanoma
M14 melanoma = tested on: M14 melanoma
MALME-3M melanoma = tested on: MALME-3M melanoma
MCF7 breast = tested on: MCF7 breast
MDA-MB-231 breast = tested on: MDA-MB-231 breast
MDA-MB-435 = tested on: MDA-MB-435
MDA-N = tested on: MDA-N
MOLT-4 leukemia = tested on: MOLT-4 leukemia
NCI-H226 lung = tested on: NCI-H226 lung
NCI-H23 lung = tested on: NCI-H23 lung
NCI-H522 lung = tested on: NCI-H522 lung
NCI/ADR-RES ovarian = tested on: NCI/ADR-RES ovarian
OVCAR-3 ovarian = tested on: OVCAR-3 ovarian
OVCAR-4 ovarian = tested on: OVCAR-4 ovarian
OVCAR-5 ovarian = tested on: OVCAR-5 ovarian
OVCAR-8 ovarian = tested on: OVCAR-8 ovarian
PC-3 prostate = tested on: PC-3 prostate
RPMI-8226 leukemia = tested on: RPMI-8226 leukemia
RXF 393 renal = tested on: RXF 393 renal
SF-268 CNS = tested on: SF-268 CNS
SF-295 CNS = tested on: SF-295 CNS
SF-539 CNS = tested on: SF-539 CNS
SK-MEL-2 melanoma = tested on: SK-MEL-2 melanoma
SK-MEL-28 melanoma = tested on: SK-MEL-28 melanoma
SK-MEL-5 melanoma = tested on: SK-MEL-5 melanoma
SK-OV-3 ovarian = tested on: SK-OV-3 ovarian
SN12C renal = tested on: SN12C renal
SNB-19 CNS = tested on: SNB-19 CNS
SNB-75 CNS = tested on: SNB-75 CNS
SR leukemia = tested on: SR leukemia
SW-620 colon = tested on: SW-620 colon
T-47D breast = tested on: T-47D breast
TK-10 renal = tested on: TK-10 renal
U251 CNS = tested on: U251 CNS
UACC-257 melanoma = tested on: UACC-257 melanoma
UACC-62 melanoma = tested on: UACC-62 melanoma
UO-31 renal = tested on: UO-31 renal
NCI-H460 lung = tested on: NCI-H460 lung
A498 renal = tested on: A498 renal

Measured: TGI

CCOC(=O)CC1C(O)C(=O)N(C)C1c1ccccc1 (centres undefined)
not listed: NCI-H460 lung | A498 renal
> 100 µM: all other assays above

CCOP(=O)(OCC)C(C)(CC)NC1=NC(C(F)(F)F)(C(F)(F)F)NC(=O)N1 (centres undefined)
not listed: NCI-H522 lung | A498 renal
> 100 µM: all other assays above

CCOC(=O)c1ccc(C(=O)/C(C#N)=C2\CCCN2)n1C
not listed: HOP-92 NSCLC | SF-539 CNS | TK-10 renal | UACC-257 melanoma
> 100 µM: all other assays above
